Holding throughout (type): cell-based
For test [1], the target named is T1, EP2 (Homo sapiens, UniProt P43116).
T1 construct: primary human myocytes cultured from term pregnant, non-labouring, myometrium; endogenous in cells; host or cells: primary human myometrial cells (myocytes) cultured from pregnant myometrium
Nature of the test: COX-2 protein by western blot in myometrial cells from different labouring groups. The note with it: butaprost 10 μM, 6 hours. The protocol:
L=non-labouring, L+E=early stage spontaneous labour, L+L=late stage spontaneous labour, L+SE=early stage induced labour, L+SL=late stage induced labour. (A) COX-2 protein (70 kB) determined by western blot and normalised to GAPDH protein (38 kB) in different labouring groups following 6 hour butaprost (10 μM) stimulation. Data shown as mean±SEM, n=5. Groups compared using one-way ANOVA with Dunnett's multiple comparison post-hoc test: *p<0.05. (B) Representative western blot for FIG. 9A.
Myometrial cells taken from women in different labouring groups were treated for 6-hours with butaprost. Confluent myometrial cells were lysed in RIPA buffer containing 1% Triton x-100, 1% Sodium deoxycholate, 0.1% SDS, 150 mM NaCl, 10 mM Tris, 1 mM EDTA plus 1 mM sodium orthovanadate and one Pierce EDTA-Free protease inhibitor mini tablet. 20-40 μg of lysate as determined via Bradford assay plus Laemmli buffer (0.5M pH 6.8 Tris, 10% SDS, 1% Bromophenol blue, 2% B-ME, 20% Glycerol) were separated with 1×SDS running buffer at 140V on SDS-PAGE gels polymerized with TEMED and ammonium persulfate: separating gel (40% poly, 1M pH 8.8 Tris, 10% SDS), […] (40% poly, 1M Tris (pH 6.8), 10% SDS). Proteins were transferred onto nitrocellulose membranes before blocking in 5% Milk TBS-T for 30 minutes and incubated overnight at 4° C. with primary antibody and blocking buffer (1:1000). Membranes were then incubated in TBS-T with appropriate secondary antibody for 1-3 hours (1:2000) before signal detection using HRP substrate and chemiluminescent imager (ImageQuant LAS 4000).
In general terms: In western blotting, separated proteins are transferred to a membrane and probed.

Test [2] has as its target T1, EP2. Nature of the test: cAMP signalling in myometrial cells from different labouring groups, EP2 agonist. The note with it: butaprost 10 μM, FIG. 8. How it is done: L=non-labouring, L+E=early stage spontaneous labour, L+L=late stage spontaneous labour, L+SE=early stage induced labour, L+SL=late stage induced labour. Myometrial cells from different labouring groups were treated with IBMX (5 minutes, 0.5 mM) before 1 minute stimulation with IBMX with/without butaprost (10 μM) or isoproterenol (10 μM). cAMP concentrations were normalised to protein. Data shown as mean±SEM, L−n=4. All other groups n=5. Each treatment compared to L− using one-way ANOVA with Dunnett's multiple comparison post-hoc test: **p<0.01, ***p<0.001, ****p<0.0001.
(§1) Myometrial tissue was acquired at St. Mary's hospital, Queen Charlotte and Chelsea hospital and Charing Cross hospital, London. Tissue was obtained from women provided with informed written consent with the approval from the Riverside Research Ethics Committee (RREC 3357, 1997-5089, 19/LO/1657) and experiments were carried out under the committee's guidelines and recommendations. Tissues were obtained from term (38+0-40 weeks gestation) pregnant women undergoing elective caesarean from the upper margin of the incision made at the lower segment of the uterus, before or after the onset of labor. Tissues taken from women in early labour (<3 cm cervical dilation) or late labour (>3 cm cervical dilation) with/without induction with syntocinon, an oxytocin analogue. Tissue was only taken from uncomplicated, singleton pregnancies.
Tissue was stored at 4° C. in phosphate buffered saline until fine dissection with scalpels and dissociation at 37° C. for 1 hour in a sterile-filtered mix of Dulbecco's modified Eagle's medium (DMEM) (Sigma Aldrich)/Ham's F-12 Nutrient Mixture (Sigma Aldrich) and serum-free DMEM (Sigma Aldrich) (1:1 v/v) containing collagenase 1A (Sigma Aldrich)(1 mg/ml), collagenase X (Sigma Aldrich)(1 mg/ml) and bovine serum albumin (Sigma Aldrich) (2 mg/ml). Dissociation was ended using DMEM 10% fetal bovine serum (Sigma Aldrich) and cell suspension was obtained using a 40-μm cell strainer before centrifugation at 3000 rpm for 5 minutes. […]

Test [3] concerns the target T1, EP2. As to the kind of experiment: Intracellular calcium response in primary myometrial cells. The following applies: PGN9856i 100 nM, FIG. 6.
From the text: One-way ANOVA with Dunnet's multiple comparison post-hoc test: **p<0.01, and (B) calcium intensity traces over time from representative cells from (A). PGN9856i is unable to elicit intracellular calcium release in primary myometrial cells.
In the myometrium EP2 is an important regulator of parturition. To assess if PGN9856i, butaprost and AH13205 induce similar second messenger profiles in the myometrium as HEK 293 cells, primary human myocytes cultured from term pregnant, non-labouring, myometrium, were treated with each ligand and intracellular cAMP, calcium and PGE2 release was measured.
as §1, with “Tissue was only taken from uncomplicated, singleton pregnancies.” left out
For orientation: Calcium assays in cells follow changes in intracellular calcium, usually with a dye or a luminescent sensor.

T1 sequence (P43116 whole entry): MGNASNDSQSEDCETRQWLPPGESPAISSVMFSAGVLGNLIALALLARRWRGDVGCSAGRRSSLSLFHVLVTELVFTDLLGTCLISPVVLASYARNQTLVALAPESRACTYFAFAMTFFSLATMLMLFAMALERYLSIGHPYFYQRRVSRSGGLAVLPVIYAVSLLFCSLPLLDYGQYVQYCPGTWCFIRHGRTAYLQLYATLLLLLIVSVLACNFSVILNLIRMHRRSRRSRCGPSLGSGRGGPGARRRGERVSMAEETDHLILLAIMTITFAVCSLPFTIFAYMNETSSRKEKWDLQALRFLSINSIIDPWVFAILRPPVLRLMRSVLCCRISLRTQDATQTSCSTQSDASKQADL

As to `CCCC1([C@H](O)C/C=C/[C@H]2[C@H](O)CC(=O)[C@@H]2CCCCCCC(=O)OC)CCC1` [butaprost], the “agonist-induced COX-2 in early stage labouring groups” value at EP2 [1] (all early stage labouring groups) is “significant increase in all early stage labouring groups”. In addition, the “agonist-induced COX-2 increase in late stage labouring groups” value on EP2 [1] (either late stage labouring group) is listed as “not apparent in either late stage labouring group”. Further, the “agonist-induced increases in COX-2 across groups” value at EP2 [1] (non-labouring and labouring groups, normalised to GAPDH) was “maintained across non-labouring and labouring groups”. Also, the “agonist-induced cAMP signalling in labouring groups vs non-labouring” value at EP2 [2] (all labouring groups) was “significantly attenuated in all labouring groups”. Also, the “reduction of agonist-stimulated cAMP, non-labouring vs spontaneous early labour” value on EP2 [2] (spontaneous early labour samples) was found to be 2.5 fold. Besides, the “reduction of agonist-stimulated cAMP, non-labouring vs spontaneous late labour” value at EP2 [2] (spontaneous late labour samples) was found to be 10 fold.

As for `CC(C)OC(=O)COc1cccc(NC(=O)c2cc(-c3cccc(F)c3)ccc2F)c1` [PGN9856i, propan-2-yl 2-(3-{3′,4-difluoro-[1,1′-biphenyl]-3-amido}phenoxy)acetate], at EP2 [3], the “activation of calcium pathway” value was “unable to activate calcium”.
